Source: patent publication US20250101204A1, “COMPOSITIONS AND METHODS FOR PROTECTING AGAINST CELL DAMAGE AND INFLAMMATION” (priority 2022, published 2025)
Numbering of substitutions follows the chain as printed. Entries after “also recorded” stand apart in the source; their conditions may differ. Like-named read-outs stand apart in the source and are kept apart here. Peptide text beside a SMILES is read from it. * marks the point of attachment. Cbz = O=C(OCc1ccccc1)*

Key:
[1] = system: lungs and heart of Su/Hx rats; experiment: lung and heart cell damage readouts in Su/Hx rats (apoptosis, senescence, necroptosis, genotoxic stress, fibrosis, hypertrophy); assay type: in vivo, rat; conditions: for genotoxic stress in vivo: Su/Hx rats, in b88 males; for senescence: female and early-stage male PAH
apoptosis = experiment: cell apoptosis induced by the p53 activator; assay type: cell-based
p53 [2] = experiment: p53 expression in vivo in Su/Hx rats; parameters: species or system rat; conditions: either sex
[3] = system: human pulmonary artery endothelial cells (HPAEC); experiment: apoptosis in HPAEC stimulated by RITA; assay type: cell-based
Procedure: (§1) To study the activities of HMGB1 cysteines, peptides were designed with cell-penetrating TAT sequences that bind to either Cys106 or Cys23/45 and prevent the interaction of these cysteines with the downstream targets. The intracellular activities of peptides were evaluated by measuring HMGB1 cytosol/nuclear distribution and the ability to regulate the recombinant HMGB1 binding to double-stranded DNA. The protective role of the Cys106-shielding peptide (αHMGB1^Cys106; SEQ ID NO: 4) was estimated using the rat Sugen/Hypoxia (Su/Hx) PAH model and human endothelial pulmonary artery cells (hPAEC).

p53 [4] = experiment: p53 levels in nuclei of PASMC; assay type: cell-based
Description: (§2) To study the activities of HMGB1 cysteines, peptides were designed that bind to the specific regions of HMGB1 and, by shielding either Cys106 or Cys23/45, prevent their interaction with the downstream targets. The peptides with cell-penetrating TAT sequences were used to study the intracellular role of HMGB1 cysteines, while peptides without TAT served as extracellular controls. Fractionating pulmonary artery smooth muscle cells (PASMC) allowed the evaluation of HMGB1 cytosol/nuclear distribution. […] The protective role of peptide in vivo was estimated using the rat Sugen/Hypoxia PH model. Given the discovered sex difference in the HMGB1-mediated signaling, the in vitro and in vivo studies were replicated in male and female animals and cells.

[5] = molecular target: T1, recombinant fully reduced HMGB1 (Homo sapiens, UniProt P09429); experiment: HMGB1 binding to calf thymus double-stranded DNA cellulose with or without shielding peptide; assay type: biochemical
T1 sequence (P09429 1-215): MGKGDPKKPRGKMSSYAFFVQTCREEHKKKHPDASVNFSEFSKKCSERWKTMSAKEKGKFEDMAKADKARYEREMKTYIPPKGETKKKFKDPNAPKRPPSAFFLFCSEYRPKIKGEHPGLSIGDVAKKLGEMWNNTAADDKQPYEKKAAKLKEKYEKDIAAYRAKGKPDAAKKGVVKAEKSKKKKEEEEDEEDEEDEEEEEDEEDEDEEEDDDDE
Procedure: The left two gel blots show HMGB1 elution after incubation with DNA cellulose.
as §2
To study the activities of HMGB1 cysteines, peptides were designed with cell-penetrating TAT sequences that bind to either Cys106 or Cys23/45 and prevent the interaction of these cysteines with the downstream targets. The intracellular activities of peptides were evaluated by measuring HMGB1 cytosol/nuclear distribution and the ability to regulate the recombinant HMGB1 binding to double-stranded DNA. […]

[6] = system: rat Sugen/Hypoxia (Su/Hx) PAH model; experiment: rat Sugen/Hypoxia (Su/Hx) PAH model, hemodynamics and right ventricle; assay type: in vivo; conditions: for right ventricle (RV) systolic pressure / protection of the RV: females, 2.5 mg/kg/day i.p.; for right ventricle (RV) systolic pressure: early stage of PH; for protection of the RV: later stage of PH; for hemodynamic parameters / protection in males: male PH rats
Description: as §2, with “cells. […]” for “cells.”
as §1, with “(hPAEC). […]” for “(hPAEC).”

[7] = system: human pulmonary artery endothelial cells (HPAEC); experiment: genotoxic stress induced in HPAEC by Doxorubicin; assay type: cell-based; conditions: Doxorubicin 1 μg/ml for 24 h
Procedure: as §1

HMGB1 [8] = molecular target: T2, HMGB1 (Rattus norvegicus, UniProt P63159); experiment: plasma HMGB1 levels in Su/Hx rats; assay type: in vivo
T2 construct: from tissue; host or cells: plasma of Su/Hx rats
T2 sequence (P63159 1-215): T1 sequence (P09429 1-215) with E189D, D202E
Description: FIGS. 11A and 11B show the sex differences in plasma HMGB1 levels in response to αHMGB1^Cys106 peptides (e.g., SEQ. ID NO: 4) in early PH stages. Note: SU2 is related to the 2 weeks after exposure to SU5416 (PAH inducer), and is indicative of a relatively early disease stage; SU5 means 5 weeks after exposure to SU5416, and is indicative of an advanced stage of the disease.
The cytosol and nuclear levels of HMGB1 were affected by a cell-penetrating peptide designed to shield Cys106 (TAT-α-HMGB1^Cys106, or α-Cys106) and not any other peptide.

HMGB1 [9] = molecular target: T3, HMGB1 (Homo sapiens, UniProt P09429); experiment: HMGB1 cytosol/nuclear distribution in fractionated PASMC; assay type: cell-based; conditions: for cytosol and nuclear levels of HMGB1: PASMC cytosolic and nuclear fraction; for exit of nuclear HMGB1 to the cytosol: especially evident in male cells
T3 construct: endogenous in cells; host or cells: pulmonary artery smooth muscle cells (PASMC), male and female
T3 sequence (P09429 1-215): T1 sequence (P09429 1-215)
Description: FIGS. 1A, 1B, 1C, and 1D show only intracellular Cysteine^106 lowers HMGB1 levels in both fractions. FIGS. 1A and 1B show peptides that bind to HMGB1^Cys106 but not HMGB1^Cys23/45 reduce HMGB1 levels in PASMC cytosolic and nuclear fraction.
FIGS. 2A and 2B show […] increases HMGB1 expulsion from the nucleus to cytosol. A proteasome inhibitor (e.g., MG 132) restores cytosolic (FIG. 2A) and nuclear (FIG. 2B) HMGB1 levels reduced by αHMGB1^Cys106 peptide.
as §2, §1

TLR4 = experiment: cytosolic and nuclear TLR4 protein levels; assay type: cell-based
Description: as §2

[10] = listed as α-Cys106, 2.5 mg/kg/day

FFLFCSEYRPKIKGRKKRRQRRRPQ [αHMGB1^Cys106 peptide, cell-penetrating TAT peptide designed to shield HMGB1 Cys106]
genotoxic stress in vivo [1]: protects against genotoxic stress
genotoxic stress in vivo ([1]; listed as αHMGB1^Cys106): inhibited genotoxic stress
apoptosis in the lungs ([1]; female Su/Hx rats): decreases apoptosis; also recorded: mediates protection against apoptosis
apoptosis in the lungs ([1]; female Su/Hx rats, listed as α-Cys106): anti-apoptotic effect
apoptosis in the lungs ([1]; female Su/Hx rats, listed as αHMGB1^Cys106): reduced pulmonary apoptosis and senescence
senescence [1]: protects against senescence
senescence ([1]; listed as αHMGB1^Cys106): reduced pulmonary apoptosis and senescence
cardiac fibrosis ([1]; heart of male Su/Hx rats): anti-fibrotic activity
apoptosis in the lungs ([1]; male Su/Hx rats): does not manifest
necroptosis ([1]; males at early PAH): protects against necroptosis
cardiomyocyte hypertrophy ([1]; rat, in vivo): protective effect
cell apoptosis (apoptosis): attenuates apoptosis
cell apoptosis (apoptosis; listed as α-Cys106): reduced cell apoptosis
expression of p53 in vivo (p53 [2]): reduces expression of p53
expression of p53 in vivo (p53 [2]; listed as αHMGB1^Cys106): negative regulation of p53 expression
apoptosis in HPAEC [3]: anti-apoptotic effect
p53 levels / expression (p53 [4]): reduces p53 levels
p53 levels / expression (p53 [4]; listed as α-Cys106): negatively affected
HMGB1 binding to DNA (HMGB1 elution after incubation with DNA cellulose) ([5]; FIG. 3): prevents HMGB1 binding to DNA
decrease in HMGB1 binding to DNA ([5]; recombinant HMGB1, double-stranded DNA cellulose): ~5.9 fold
right ventricle systolic pressure ([6]; female Su/Hx rats, preventive study, 2.5 mg/kg/day i.p. for 2 wks, Su/Hx alone 73.2±3.4, p=0.0002): 50.4±3.0 mmHg
right ventricle systolic pressure ([6]; female Su/Hx rats, treatment study, 2.5 mg/kg/day i.p. for 2 wks, Su/Hx alone 110.5±6.3, p=0.0005): 70.0±2.8 mmHg
right ventricle (RV) systolic pressure ([6]; 2.5 mg/kg/day): decreases right ventricle (RV) systolic pressure
right ventricle (RV) systolic pressure [6, 10]: decreased right ventricle (RV) systolic pressure
protection of the RV ([6]; 2.5 mg/kg/day): protects the RV
protection of the RV [6, 10]: protected the RV
hemodynamic parameters / protection in males [6]: protected only by treatment protocol
hemodynamic parameters / protection in males ([6]; listed as α-Cys106): no changes
right ventricle systolic pressure ([6]; male Su/Hx rats, treatment protocol, 2.5 mg/kg/day i.p. for 2 wks, Su/Hx alone 101.7±2.7, p=0.0007, N=5-8): 73.4±6.4 mmHg
PAH severity in Su/Hx model ([6]; rat Su/Hx, 2.5 mg/kg/day i.p. for 2 wks, 2.5 mg/kg/day): protective and treatment effects; also recorded: significantly attenuated PAH
genotoxic stress in HPAEC [7]: protective effect
plasma HMGB1 levels (HMGB1 [8]; females, 2.5 mg/kg/day i.p.): reduced plasma HMGB1 levels
plasma HMGB1 (HMGB1 [8]; male PH rats): no changes
degradation of HMGB1 (HMGB1 [9]): lysosomal degradation
cytosol and nuclear levels of HMGB1 (HMGB1 [9]): reduced; also recorded: affected
cytosol and nuclear levels of HMGB1 (HMGB1 [9]; listed as HMGB1^Cys106 peptide): reduces HMGB1 levels
cytosol and nuclear levels of HMGB1 (HMGB1 [9]; listed as TAT-α-HMGB1^Cys106): affected
exit of nuclear HMGB1 to the cytosol (HMGB1 [9]): enhancing the nuclear HMGB1 exit to the cytosol
exit of nuclear HMGB1 to the cytosol (HMGB1 [9]; listed as α-Cys106): enhanced the exit of nuclear HMGB1 to the cytosol
degradation of HMGB1 (HMGB1 [9]; listed as α-Cys106): induced its proteasomal degradation
HMGB1 level in PASMC (HMGB1 [9]; relative to untreated 1±0.097, N=6): 0.428±0.045
HMGB1 level in PASMC with proteasome inhibitor (HMGB1 [9]; α-Cys106 plus proteasome inhibitor MG132, 10 μM, 1 hr, untreated 1±0.097, N=6): 0.885±0.049
TLR4 protein levels / expression (TLR4): reduces cytosolic and nuclear TLR4 protein levels
TLR4 protein levels / expression (TLR4; listed as α-Cys106): negatively affected

SIGDVAKKLGEMWNNGRKKRRQRRRPQ [HMGB1^Cys23/45]
cytosol and nuclear levels of HMGB1 (HMGB1 [9]): not

CC(C)C[C@@H](C=O)NC(=O)[C@H](CC(C)C)NC(=O)[C@H](CC(C)C)NC(=O)OCc1ccccc1 [MG 132, reference compound] (Cbz-Leu-Leu-Leu-aldehyde)
cytosolic and nuclear HMGB1 levels reduced by αHMGB1^Cys106 peptide, effect of proteasome inhibitor (HMGB1 [9]; FIGS. 2A, 2B): restores
